Columns and labels:
[1] = system: IL-23-induced mouse psoriasis model; test: Effect in an IL-23-induced mouse psoriasis model; format: in vivo, Balb/c mice; conditions: versus the negative control group
Method: Effect in an IL-23-Induced Mouse Psoriasis Model
Mouse IL-23 (500 ng/15 μL, R&D) or PBS (15 μL, negative control group) was administered intradermally in the ear of Balb/c mice (Charles River Japan, male, 7 weeks old) 5 times every other days. Seven hr after IL-23 administration at 8 days after the initial administration (final administration), the mice were anesthetized with isoflurane, and ear thickness was measured with calipers. After the ear thickness was measured, the ear was resected, tissue 8 mm in diameter was punched from an area centering on the IL-23 injection site, and the tissue was weighed. The punched ear tissue was cut in half, and one half was immersion-fixed in 10% neutral buffer formalin solution for use in histopathological evaluation. The other half was immersed in RNAlater (QIAGEN) for at least 18 hr for use in an evaluation of the IL-17A mRNA expression level. The test compound was suspended in 0.5% methylcellulose and administered orally twice daily on consecutive days from 30 min before the initial IL-23 administration to 30 min before the final IL-23 administration.
The change in ear thickness in this model was evaluated by calculating the difference in measured thickness between before IL-23 administration and 7 hr after the final IL-23 administration. In addition, the formalin-fixed tissue was embedded and sectioned, then stained with hematoxylin-eosin. The degree of acanthosis was then evaluated qualitatively by microscopy (classified with a score of 0 to 4). RNA extraction from the ear tissue and quantitative PCR were performed as follows. As described above, ear tissue treated with RNAlater (QIAGEN) was homogenized in 350 μL of RLT buffer (RNeasy mini kit, QIAGEN) and treated (55° C., 10 min) with Proteinase K (QIAGEN). Total RNA was then extracted according to the RNeasy mini kit protocol. The RNA thus obtained was reverse transcribed into cDNA using the High-Capacity RNA-to-cDNA kit (Applied Biosystems), and the expression of each gene was measured by real-time PCR (Viia7™, Applied Biosystems). The PCR buffer used was TaqMan Fast Advanced Master Mix (Applied Biosystems), and TaqMan Gene Expression Assays (Applied Biosystems) Mm00439618_ml (IL-17A) and 4352341E (β-actin) were used to detect the genes. The IL-17A gene expression level was normalized to the β-actin gene expression level, and the percent inhibition of IL-17A gene expression with the test compound was then calculated.
The results (percent inhibition of ear thickness, acanthosis score and IL-17A gene expression with oral administration of the test compound) measured by the above-mentioned method are shown in Table 10.

[2] = system: IL-17A gene expression; test: Effect on IL-23-induced cytokine expression in mice; format: in vivo, Balb/c mice; conditions: Mus musculus, 24 h, 30 min before and 8 hr after IL-23, ear tissue, versus the negative control group, read-out: percent inhibition of IL-17A gene expression
Method: Effect on IL-23-Induced Cytokine Expression in Mice
A mouse IL-23 solution (500 ng/10 μL, prepared by Takeda Pharmaceutical Company Limited) or PBS (10 μL, negative control group) was administered intradermally in the ear of Balb/c mice (Charles River Japan, male, 7 weeks old). Twenty-four hr after administration, the ear was resected under isoflurane anesthesia. The test compound was suspended in 0.5% methylcellulose and administered orally 30 min before and 8 hr after IL-23 administration.
RNA extraction from the ear tissue and quantitative PCR were performed as follows. Specifically, ear tissue 5 mm in diameter was punched from an area of the resected ear centering on the IL-23 injection site, and the tissue was immersed in RNAlater (QIAGEN) for at least 18 hr. The RNAlater-treated ear tissue was homogenized in 350 μL of RLT buffer (RNeasy mini kit, QIAGEN) and treated (55° C., 10 min) with Proteinase K (QIAGEN). Total RNA was then extracted according to the RNeasy mini kit protocol. The RNA thus obtained was then reverse transcribed into cDNA using the High-Capacity RNA-to-cDNA kit (Applied Biosystems), and the amount of each gene expressions was measured by real-time PCR (Viia7™, Applied Biosystems). The PCR buffer used was TaqMan Fast Advanced Master Mix (Applied Biosystems), and TaqMan Gene Expression Assays (Applied Biosystems) Mm00439618_m1 (IL-17A) and 4352341E (β-actin) were used for each gene detection. The IL-17A gene expression level was normalized to the β-actin gene expression level, and the percent inhibition of IL-17A gene expression with the test compound was then calculated.
The results (percent inhibition of IL-17A gene expression with oral administration of the test compound) measured by the above-mentioned method are shown in Table 9.

[3] = system: T cell-transferred mouse colitis model; test: Effect in a T cell-transferred mouse colitis model; format: in vivo, mice; conditions: 3 mg/kg oral twice daily; 21 days after cell transfer; versus the negative control group
From the text: Effect in a T Cell-Transferred Mouse Colitis Model
Balb/c mice (Charles River Japan, female, 8 weeks old) were euthanized, and the spleens were resected, mashed in mesh, and passed through cell strainer to prepare a suspension of splenic cells. The mononuclear cell fraction in the splenic cells was isolated by density-gradient centrifugation, and subjected to hemolysis treatment with ammonium chloride buffer solution (Immuno-Biological Laboratories, Co., Ltd.). The naive T-cells were purified using CD4+CD62L+ T Cell Isolation Kit II (Miltenyi Biotec). The naive T-cells (2×10^5 cells/mouse) were intravenously transferred into SCIDmice (CLEA Japan, female, 8 weeks old). The compound was suspended in 0.5% methyl cellulose, and the suspension was orally administered twice daily on consecutive days from the same evening of the cell transfer. The mice were blinded 20 days after the cell transfer, and the symptom of the stool on floorcloth under blind was evaluated by scores of 1 to 4 (1: normal, 2: loose stool, 3: diarrhea (formed), 4: diarrhea (unformed)) 21 days after the cell transfer. […] The large intestine was washed with saline, and the weight was measured.
The results (percent inhibition of intestinal tract weight and diarrhea score with oral administration of the test compound) measured by the above-mentioned method are shown in Table 11.

[4] = system: mouse EAE model; test: Effect in a mouse EAE model; format: in vivo, C57BL/6J mice; conditions: 3 mg/kg oral; integration value of the clinical score for 28 days; versus the negative control group
Method: Effect in a Mouse EAE Model
. C57BL/6J mice (10 weeks old, female, Charles River Japan) were grouped based on the body weight, and the MOG emulsion was intradermally administered at two point of the joint of dorsal hindlimb so that the dose was 100 μL/site, 200 μL/mouse. In addition, Pertussis toxin (Merck) was intraperitoneally administered twice on the sensitization day and 2 days thereafter in the dose of 400 ng/200 μL/mouse. The body weight was measured twice a week before onset and everyday (excluding holiday) after onset from the sensitization day. The clinical score was evaluated by the following standard scores of 0 to 5 (0: normal, 0.5: partial paralysis of tail, 1: complete paralysis of tail, 2: partial paralysis of hindlimb, 3: paralysis of lower body, 4: partial paralysis of forelimb, 5: paralysis of both forelimbs or death) by observation everyday (excluding holiday) after the beginning of onset.
The percent inhibition of the clinical score of the test compound administration group relative to that of the control group was calculated using integration value of the clinical score for 28 days.
The results (percent inhibition of clinical score with oral administration of the test compound) measured by the above-mentioned method are shown in Table 12.

SMILES	percent inhibition of IL-17A expression ([1]; 1 mg/kg oral twice daily)	percent inhibition of acanthosis score ([1]; 1 mg/kg oral twice daily)	percent inhibition of ear thickness ([1]; 1 mg/kg oral twice daily)	inhibition in vivo at 10 mg/kg ([2]; 10 mg/kg oral)	percent inhibition of diarrhea score [3]	percent inhibition of intestinal tract weight [3]	percent inhibition of IL-17A expression ([1]; 3 mg/kg oral twice daily)	percent inhibition of acanthosis score ([1]; 3 mg/kg oral twice daily)	percent inhibition of ear thickness ([1]; 3 mg/kg oral twice daily)	percent inhibition of clinical score [4]	inhibition in vivo at 3 mg/kg ([2]; 3 mg/kg oral)
COc1ccc2c(n1)CCN(C(=O)[C@H]1C[C@@H](C(=O)O)C1)[C@H]2C(=O)Nc1cc(F)c2c(c1)CCC2(C)C [Example 10]	91%	47%	52%	87%	–	–	–	–	–	–	–
COc1ccc2c(n1)CCN(C(=O)[C@H]1C[C@@H](CC(=O)O)C1)[C@H]2C(=O)Nc1cc(F)c2c(c1)CCC2(C)C [Example 15, (cis-3-(((5R)-5-((7-fluoro-1,1-dimethyl-2,3-dihydro-1H-inden-5-yl)carbamoyl)-2-methoxy-7,8-dihydro-1,6-naphthyridin-6(5H)-yl)carbonyl)cyclobutyl)acetic acid]	–	–	–	–	81%	58%	93%	53%	61%	64%	99%

Source: patent publication US9365520B2, “Heterocyclic compound” (Takeda Pharmaceutical Company Limited, priority 2014, dated 2016)
